Assay results from US8216821B2, “Regulation of heterologous recombinant protein expression in methylotrophic and methanotrophic bacteria” (National Research Council of Canada, priority 2005, dated 2012).

What was measured:
repressor protein (cymR) = target: T1, repressor protein (cymR) (Pseudomonas putida, UniProt O33453); test: cumate induction of gfp reporter gene expression in M. extorquens (cymR2) transformed with pCUM-gfp; assay type: cell-based, Pseudomonas putida F1
T1 construct: expressed in transfected cells; host or cells: Methylobacterium extorquens ATCC 55366, strain cymR2 (two cymR copies integrated by mini-Tn7 under PmxaF), carrying pCUM-gfp
Description: Detection of gene expression Detection of GFP was carried out by fluorescence microscopy, and quantified by using a SPECTRAFluor Plus (TECAN Austria Gmbh, GrodIg, Austria) under excitation and emission wavelengths of 485 and 508 nm, respectively. Concentration of GFP was calculated based on a linear relationship between concentration and fluorescence units determined using solutions of purified GFP (Qbiogene). The biomass (X) was determined by cell dry weight measurement of the samples (Moisture Analyzer MA 30, Sartorius).
(§1) To test the optimal concentration of inducer, cumate, recombinant M. extorquens (cymR2) transformed with pCUM-gfp was grown to mid-log phase (0.8-1.0 units at OD600) at 30° C. followed by induction with cumate at different concentrations. Reporter gene expression was detectable 4 h post induction. Cumate induction was very sensitive since about 47% of reporter gene expression was obtained with 1 μg cumate/ml (FIG. 5). […] Optimum cumate concentration for effective induction of reporter gene expression was 15 μg/ml (ca. 0.1 mM).

M. extorquens (cymR2) = assay type: cell-based, Methylobacterium extorquens; conditions: cumate 1-30 μg/ml
Description: M. extorquens (ATCC 55366) was used for the preparation of the heterologous gene expression host. E. coli strain Top10 was used for cloning and propagation of recombinant DNA and S17-1λpir (recA, thi, pro, hsdR^−M^+ RP4:2-Tc:Mu:Km Tn7, pir lysogen; Sm^R, Tp^R) was used for propagation of the helper plasmid (23). E. coli was cultured in Luria Bertani broth (LB) at 37° C. Strain of M. extorquens was grown in CHOI medium, as previously described (17) and 1% (v/v) methanol was used as sole carbon source. Both media were solidified by 1.8% agar (Difco) when appropriate. Antibiotics were used for E. coli and M. extorquens at the following concentrations (in ug/ml): ampicillin, 100; kanamycin (Km), 40; tetracyclin (Tc), 35.
as §1

cym and cmt operons = conditions: P. putida F1, regulated by cymR; cited from earlier work

T1 sequence (O33453 whole entry): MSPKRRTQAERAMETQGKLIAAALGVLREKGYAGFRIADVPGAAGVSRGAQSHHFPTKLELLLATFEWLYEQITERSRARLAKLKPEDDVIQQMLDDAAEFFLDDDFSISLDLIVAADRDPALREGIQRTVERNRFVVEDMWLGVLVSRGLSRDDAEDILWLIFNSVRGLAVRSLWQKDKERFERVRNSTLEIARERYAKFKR

With `CC(C)c1ccc(C(=O)O)cc1` [cumate, p-isopropylbenzoate] as the compound, how does the “cumate concentration giving maximum gene expression” value (repressor protein (cymR); FIG. 5, gfp expression) read?
The value was 15-30 μg cumate/ml.

What about the “time post induction at which reporter gene expression was detectable” value (repressor protein (cymR); cumate at different concentrations) of the same compound?
Its value is 4 h.

And the “optimum cumate concentration for effective induction of reporter gene expression” value (repressor protein (cymR); induced at OD600 0.8-1.0, 30° C.)?
Its value is 15 µg/mL.

And the “optimum cumate concentration for effective induction of reporter gene expression” value (repressor protein (cymR); molar equivalent of 15 μg/ml)?
Its value is “ca. 0.1 mM”.

And the “time post induction of maximum GFP expression” value (repressor protein (cymR); pCUM-GFP clones, FIG. 7a, cumate 15 μg/ml)?
Its value is 30 h.

And the effect on growth (M. extorquens (cymR2))?
The effect on growth was “No growth difference”.

And the “induction of cym/cmt operon expression” value (cym and cmt operons)?
Its value is “Induction is afforded”.

With `Cc1ccc(C(C)C)cc1` [p-cymene, p-isopropyltoluene] as the compound, how does the “induction of cym/cmt operon expression” value (cym and cmt operons) read?
Its value is “not”.
